Earlier results, collected in patent US20080286202A1, “Method of Diagnosing Prodromal Forms of Diseases Associated With Amyloid Deposition” (priority 2004, published 2008).

Conditions: in vivo

COc1ccccc1N1CCN(CCN(c2ccccn2)[11C](=O)C2CCCCC2)CC1 [[^11C]WAY-100635]
f1 (free level in plasma): 0.06
